Source: patent US20210321613A1, “Process for Preparation of Thiocyclam Base and Salt” (ARYSTA L[…], priority 2018, published 2021)

Legend:
Format in all cases: in vivo
[1] = system: Coding moth, Cydia pomonella
Text: Coding moth, Cydia pomonella—onate
larvae Bioassay by diet incorporation; Mortality assessment 2 days after treatment a.i. refers to active ingredient
(§1) LC stands for “Lethal Concentration”. LC values refer to the concentration of a chemical required to kill a certain proportion of a population of pests. The concentration of the chemical that kills 50 percent of the pests during the observation period is the LC50 value and a concentration that kills 90 percent of a population is LC90, LD stands for “Lethal Dose”. LD50 is the amount of an ingested substance that kills 50 percent of a test sample and […] is the lethal dose that kills 90 percent of the test sample. […] In example 1, approximately 4 times less thiocyclam hydrochloride was ingested by the moths at LC50 compared to cartap and approximately 9 times less at LC90 compared to cartap. […] In example 7, all three insecticides performed similarly to eliminate the aphids on radish plants. […] The use of the thiocyclam hydrochloride composition embodiments is in no way restricted to these genera, but also extends in the same manner to other insects and other crops.

[2] = system: Soybean looper, Chrysodeixis includens; assay: Soybean looper bioassay by diet surface incorporation, mortality; conditions: for LC50: Chrysodeixis includens, 72 h, 3rd larval stage, diet surface incorporation, mortality 3 days after treatment (D + 3), read-out: LC50 (μg of a.i/ml of diet)
Text: Soybean looper, Chrysodeixis includens—3rd larval stage
Bioassay by diet surface incorporation Mortality assessment 3 days after treatment a.i. refers to active ingredient
as §1

Aphids, Myzus persicae = assay: Aphid larvae on radish, boom sprayer application (IRAC n°019 adapted), mortality; conditions: for LD50 (g a.iJha) / LD90 (g al./ha): mortality 3 days after application (D + 3); for LD50 (g al./ha) / LD90 (g alJha): mortality 4 days after application (D + 4)
Text: Aphids, Myzus persicae—larvae
Study based on IRAC n°019 methods, application method adapted Plant: radish Application on petri dish with larvae with a boom sprayer apparatus Assessment of mortality 3 and 4 days after application a.i. refers to active ingredient
as §1

[3] = system: White flies, Trialeurodes vaporarium; assay: White fly larvae on bean, boom sprayer application (IRAC n°015 adapted), mortality; conditions: for LD50 (g al/ha) / LD90 (g a.i/ha): mortality 9 days after application (D + 9); for LD50 (g a.i./ha) / LD90 (g a.i./ha): mortality 14 days after application (D + 14)
Text: White flies, Trialeurodes vaporarium—larvae
Study based on IRAC n°015 methods, stage and application method adapted Plant: bean Application: On the petri dish with larvae with a boom sprayer apparatus Assessment of mortality at 7, 9 and 14 days after application a.i. refers to active ingredient
as §1

Row | SMILES | times less ingested by the moths at LC50 compared to cartap ([1]; compared to cartap, LC50) | times less at LC90 compared to cartap ([1]; compared to cartap, LC90) | LC50 and LC90 compared to thiocyclam oxalate ([1]; compared to thiocyclam oxalate) | LC50 [2] | LC50 achieved with times less than cartap ([2]; compared to cartap, LC50) | LC90 compared to the concentration of cartap ([2]; compared to cartap, LC90) | LC50 achieved with times less than thiocyclam oxalate ([2]; compared to thiocyclam oxalate, LC50) | LC90 compared to thiocyclam oxalate ([2]; compared to thiocyclam oxalate, LC90) | LD50 (g a.iJha) (Aphids, Myzus persicae) | LD90 (g al./ha) (Aphids, Myzus persicae) | LD50 (g al./ha) (Aphids, Myzus persicae) | LD90 (g alJha) (Aphids, Myzus persicae) | LD90 compared to cartap ([3]; days 7 and 9) | LD90 (g ai./ha) ([3]; larvae, bean, mortality 7 days after application (D + 7)) | LD50 (g al/ha) ([3]; larvae, bean) | LD90 (g a.i/ha) ([3]; larvae, bean) | LD50 (g a.i./ha) ([3]; larvae, bean) | LD90 (g a.i./ha) ([3]; larvae, bean)
1 | CN(C)C1CSSSC1.Cl [Thiocyclam HCl, N,N-dimethyl-1,2,3-trithian-5-ylamine hydrochloride] | approximately 4 times | approximately 9 times | significantly lower concentrations | 8.99 µg/mL | approximately 6 times | more than three times lower | approximately 20 times | orders of magnitude smaller | 12.04 g a.iJha | 30.51 g al./ha | 7.66 g al./ha | 27.07 g alJha | lower application concentration compared to cartap | 1,899 g ai./ha | 2.23 g al/ha | 4,905 g a.i/ha | 0.82 g a.i./ha | 7,910 g a.i./ha
2 | CN(C)C(CSC(N)=O)CSC(N)=O [Cartap, reference compound] |  |  |  | 53.1 µg/mL |  |  |  |  | <18.18 g a.iJha | 36.70 g al./ha | <18.18 g al./ha | 16 g alJha |  |  | 15.6 g al/ha | 4,566.3 g a.i/ha | 10.4 g a.i./ha | 910.4 g a.i./ha
